Laboratory results from US20220290106A1, “Method for Promoting Cell Proliferation, and Method for Preparing Cell Cluster” (Osaka University, priority 2019, published 2022).

Key:
MSC cell aggregates [1] = assay: Test Example 7: aggregate culture 4 of MSCs (3-DG or GO); format: cell-based; conditions: for cell proliferation rate of the MSC cell aggregate: cells counted Day 4 (before treatment) and Day 9, 24 hours treatment, then 10 μM ROCK inhibitor medium; for cell proliferation rate, dependence on concentration: cells counted Day 4 and Day 9, increasing 3-DG/GO concentration; for periphery of the cell aggregate (effect of promoting cell proliferation): treatment time 24 hours from Day 4, then 10 μM ROCK inhibitor medium, Day 9 vs Day 4
Description: Test Example 7 was performed in the same manner as Test Example 6 (aggregate culture 3 of MSCs) except that the culture conditions were changed as follows.
(§1) Medium on Day 0: the above medium containing no ROCK inhibitor
Added reagent: 3-Deoxyglucosone (3-DG) (manufactured by Sigma-Aldrich) • Glyoxal Solution (GO) (manufactured by Sigma-Aldrich) Addition of 3-DG or GO: 3-DG or GO was added after the medium was replaced on the 4th day of culture (Day 4). 3-DG or GO treatment time: 24 hours Medium for replacement:
(§2) Day 2, 4: the above medium containing no ROCK inhibitor
(§3) Day 5, 7, 9: the above medium containing 10 μM ROCK inhibitor
Similarly to Test Example 4, the number of cells was counted on Day 4 (before the treatment) and on Day 9, and the cell proliferation rate was confirmed. As a result, the cell proliferation rate of the MSC cell aggregate was increased by culturing the MSC cell aggregate that had been treated with 3-DG or GO, like the MG treatment.

MSC cell aggregates [2] = assay: Test Example 6: aggregate culture 3 of MSCs (MG 24 hours); format: cell-based; conditions: MG 1.25-20 mM, treatment time 24 hours from Day 4, then 10 μM ROCK inhibitor medium; Day 15 vs Day 4
Description: Test Example 6 was performed in the same manner as Test Example 5 (aggregate culture 2 of MSCs) except that the culture conditions were changed as follows. […] Addition of MG: MG was added after the medium was replaced on the 4th day of culture (Day 4). MG treatment time: 24 hours Medium for replacement: Day 2, 4: the above medium containing no ROCK inhibitor Day 5, 7, 9, 11, 13, 15: the above medium containing 10 μM ROCK inhibitor

MSC cell aggregates [3] = assay: Test Example 5: aggregate culture 2 of MSCs (MG 20 minutes); format: cell-based; conditions: MG 1.25-20 mM, treatment time 20 minutes on Day 4, then 10 μM ROCK inhibitor medium; Day 15 vs Day 4
Description: MSC aggregates were cultured under the following culture conditions. […] Medium: Mesenchymal Stem Cell Growth Medium 2 (manufactured by Takara Bio Inc.) Culture vessel: Micro-Space Cell Culture Plate (manufactured by Kuraray Co., Ltd), 24 well plate (manufactured by Corning) Culture condition: 37° C., 5% CO2 incubator Amount of medium: 3 mL/well Seeding density: 1.0×10^5 cell/well Culture period: 15 days Medium on Day 0: the above medium containing no ROCK inhibitor Replacement of medium: 1.5 mL/well×3, once every two days Medium for replacement: Day 2: the above medium containing no ROCK inhibitor Day 4, 6, 8, 10, 12, 14: the above medium containing 10 μM ROCK inhibitor Added reagent: Methylglyoxal Solution (product code: […], 1.17 g/mL, 16.25 M, manufactured by Sigma-Aldrich) Methylglyoxal concentration: 0, 1.25, 2.5, 5, 10, 15, 20 mM Addition of MG: MG was added 20 minutes before the medium was replaced on the 4th day of culture (Day 4). MG treatment time: 20 minutes Imaging: Day 4 (before addition of MG) and Day 15

MSCs (monolayer culture) = assay: Monolayer culture of MSCs under the conditions of Test Example 4; format: cell-based; conditions: monolayer culture instead of aggregate culture; presence or absence of MG and ROCK inhibitor
Description: Next, MSCs were cultured under the culture conditions of Test Example 4 except that the MSCs were subjected to monolayer culture instead of aggregate culture.

HepG2 aggregates = assay: Test Example 8: aggregate culture of HepG2; format: cell-based, Human; conditions: MG 1-20 mM for 24 hours from Day 3, then 10 μM ROCK inhibitor medium
Description: HepG2 aggregates were cultured under the following culture conditions. The number of cells was counted on Day 3 (before the addition of MG) and on Day 4, and the cell proliferation rate was confirmed.
Medium: HepG2 Hepatocellular Carcinoma Expansion Media, Human (Cellular Engineering Technologies)
Culture vessel: 24 well plate (manufactured by Coming) Culture condition: 37° C., 5% CO2 incubator Amount of medium: 0.5 mL/well Culture period: 6 days
as §1
Day 2, 3: the above medium containing no ROCK inhibitor
Day 4, 6: the above medium containing 10 μM ROCK inhibitor
Seeding density: 1.0×10^4 cells/cm^2 Replacement of medium: 0.5 mL/well, once every two days Added reagent: Methylglyoxal Solution (manufactured by Sigma-Aldrich) Methylglyoxal concentration: 0, 1, 5, 10, 15, 20 mM Addition of MG: MG was added after the medium was replaced on the 3rd day of culture (Day 3). MG treatment time: 24 hours

MSC aggregates = assay: Test Example 4: aggregate culture 1 of mesenchymal stem cells, cell proliferation rate; format: cell-based
Description: MSC aggregates were cultured under the following culture conditions. The number of cells was counted on Day 4 (before the addition of MG) and on Day 9. Using the resulting number of cells, the cell proliferation rate was obtained from the following formula.
Medium: Mesenchymal Stem Cell Growth Medium 2 (manufactured by Takara Bio Inc.) Culture vessel: Micro-Space Cell Culture Plate (manufactured by Kuraray Co., Ltd), 24 well plate (manufactured by Corning) Culture condition: 37° C., 5% CO2 incubator Amount of medium: 3 mL/well Seeding density: 1.0×10^5 cell/well Culture period: 9 days
as §1
Replacement of medium: 1.5 mL/well×3, once every two days (Day 5, 7, 9) Medium for replacement:
as §2, §3
Added reagent: Methylglyoxal Solution (product code: M0252, 1.17 g/mL, 16.25 M, manufactured by Sigma-Aldrich) Methylglyoxal concentration: 0, 0.0075, 0.01, 0.0125, 0.015, 0.02 mM Addition of MG: MG was added after the medium was replaced on the 4th day of culture (Day 4). MG treatment time: 24 hours
Cell proliferation rate=(the number of cells on Day 9)/(the number of cells on […])

[4] = system: iPS cell aggregates (iPSCs, D2 strain); assay: Test Example 1: aggregate culture 1 of iPS cells; format: cell-based
Description: iPSC aggregates were cultured under the following culture conditions. FIGS. 1A and 1B show the results. Cell: iPSCs (D2 strain, Np43) Medium: StemFit (registered trademark) A[…] (manufactured by Takara Bio Inc.) Culture vessel: 96 well V-bottom plate (MS-9096V manufactured by Sumitomo Bakelite Co., Ltd.) Cell density: 1316 cells/cm^2 (5×10^2 cells/wells) Culture condition: 37° C., 5% CO2 incubator Amount of medium: 150 μl/well Culture period: 7 clays (Methylglyoxal was added once after the medium was replaced on the 4th day of culture (Day 4).) Medium on Day 0: the above medium containing 10 μM ROCK inhibitor Replacement of medium: 150 μl/well Medium for replacement: the above medium containing no ROCK inhibitor Added reagent: Methylglyoxal Solution (product code: […], 1.17 g/mL, 16.25 M, manufactured by Sigma-Aldrich) Methylglyoxal (MG) concentration: 0, 0.1, 1, 10, 100 mM Imaging: photomicrography on the 4th day of culture (Day 4) (before addition of MG) and the 5th, 6th, and 7th day of culture (Day 5, 6, 7) (after addition of MG) FIGS. 1A and 1B show an example of photomicrographs of iPS cell aggregates before the addition of MG (Day 4) and after the addition of MG (Day 5, 6, 7). FIG. 1B is a partially enlarged view of FIG. 1A

[5] = system: iPS cell aggregates (iPSCs, D2 strain); assay: Test Example 2: aggregate culture 2 of iPSCs (MG 20 minutes, then ROCK inhibitor medium); format: cell-based; conditions: MG 1.25-20 mM, treatment time 20 minutes on Day 4, then medium with 10 μM ROCK inhibitor; Day 10 vs Day 4
Description: Cell: iPSCs (D2 strain, Np17, feeder less) Medium: StemFit (registered trademark) A[…] (manufactured by Takara Bio Inc.) Culture vessel: 96 well V-bottom plate (MS-9096V manufactured by Sumitomo Bakelite Co., Ltd.) Cell density: 200 cells/well Culture condition: 37° C., 5% CO2 Amount of medium: 150 μl/well Culture period: 10 days and (subculture) 5 days (15 days in total) Medium on Day 0: the above medium containing 10 μM ROCK inhibitor Replacement of medium: 75 μl/well (daily) Medium for replacement: Day 4 to 10: the above medium containing 10 μM ROCK inhibitor Day 1 to 3: the above medium containing no ROCK inhibitor Methylglyoxal concentration: 0, 1.25, 2.5, 5, 10, 15, 20 mM Added reagent: Methylglyoxal Solution (product code: […], 1.17 g/mL, 16.25 M, manufactured by Sigma-Aldrich) Addition of MG: MG was added 20 minutes before the medium was replaced on the 4th day of culture (Day 4). MG treatment time: 20 minutes Imaging: video observation with BicStudio (manufactured by NIKON ENGINEERING CO., LTD.) after addition of MG

[6] = system: iPS cell aggregates (iPSCs, D2 strain); assay: Test Example 3: aggregate culture 3 of iPSCs (MG 24 hours, then ROCK inhibitor medium); format: cell-based; conditions: MG 1.25-20 mM, treatment time 24 hours from Day 4, then medium with 10 μM ROCK inhibitor; Day 10 vs Day 4
Description: Test Example 3 was performed in the same manner as Test Example 2 (aggregate culture 2 of iPSCs) except that the culture conditions were changed as follows and the procedures shown in FIG. 3 were used. […] Addition of MG: MG was added after the medium was replaced on the 4th day of culture (Day 4). MG treatment time: 24 hours Medium for replacement: Day 4 to 10: the above medium containing 10 μM ROCK inhibitor Day 1 to 3: the above medium containing no ROCK inhibitor

Row | SMILES | cell proliferation rate of the MSC cell aggregate (MSC cell aggregates [1]) | cell proliferation rate, dependence on concentration (MSC cell aggregates [1]) | periphery of the cell aggregate (effect of promoting cell proliferation) (MSC cell aggregates [1]) | periphery of the cell aggregate (effect of promoting cell proliferation) (MSC cell aggregates [2]) | periphery of the cell aggregate (effect of promoting cell proliferation) (MSC cell aggregates [3]) | cell proliferation rate (MSCs (monolayer culture)) | periphery of the cell aggregate (effect of promoting cell proliferation) (HepG2 aggregates) | cell proliferation rate (MSC aggregates; MG 0.0075-0.02 mM for 24 hours from Day 4, then 10 μM ROCK inhibitor medium, cell count Day 9, without MG (0 mM) 1.2 times) | cell proliferation rate, medium containing ROCK inhibitor versus medium containing no ROCK inhibitor (MSC aggregates; combination of MG and 10 μM ROCK inhibitor compared with MG without ROCK inhibitor) | cell binding properties in the periphery of the cell aggregate, dependence on MG concentration ([4]; MG 0.1, 1, 10, 100 mM) | cell binding properties in the periphery of the cell aggregate ([4]; MG 0.1-100 mM added once on Day 4, compared to control not treated with MG) | periphery (outer circumferential portion) of the cell aggregate, fibrillation state ([4]; MG 0.1-100 mM added once on Day 4, photomicrographs Day 5, 6, 7, compared to control not treated with MG) | periphery of the cell aggregate (effect of promoting cell proliferation) [5] | periphery of the cell aggregate (effect of promoting cell proliferation) [6]
1 | O=CC(=O)C[C@H](O)[C@H](O)CO [3-DG, 3-Deoxyglucosone] | increased | tended to be higher with an increase in the 3-DG/GO concentration | expand slightly |  |  |  |  |  |  |  |  |  |  | 
2 | CC(=O)C=O [MG, methylglyoxal] |  |  |  | expand slightly | expand slightly | did not change significantly | expand slightly | nearly doubled | higher | tended to be further reduced with an increase in the MG concentration | reduced | became non-fibrillated (unraveled) | expand slightly | expand slightly
3 | O=CC=O [GO, glyoxal] | increased | tended to be higher with an increase in the 3-DG/GO concentration | expand slightly |  |  |  |  |  |  |  |  |  |  | 
